Laboratory results published in patent EP0528030B1, “ANTITUMOR BE-13793C DERIVATIVE” (BANYU PHARMACEUTICAL CO., LTD., priority 1990, dated 1991).
Values after ≈ are worked out from the molar mass of the structure shown.

What was measured:
Assay type in all cases: cell-based
[1] = test system: human colon cancer cell LS180; assay: Cancer cell proliferation inhibition (sulforhodamine B staining), LS180; conditions: 72 hours culture with test solution, DMEM medium containing 10% fetal bovine serum
Procedure: (§1) A test compound (20 mg) was dissolved in dimethyl sulfoxide (1 ml) and successively diluted into test solutions.
(§2) DMEM medium containing 10% fetal bovine serum was used for a human gastric cancer cell MKN45 and a human colon cancer cell LS180, and […] medium containing 10% fetal bovine serum was used for human lung cancer PC13.
(§3) 100 µl portions of the cell-culturing medium containing 3×10^3 cancer cells were put in a 96-hole microplate, culture was carried out under 5% CO2 at 37°C for 24 hours, 11 µl portions of the above test solution were added, the mixtures were subjected to culture under 5% CO2 at 37°C for further 72 hours, and then the cells were fixated with 50% trichloroacetic acid and stained with 0.4% sulforhodamine B. The dye was extracted from the stained cells with 10 mM Tris solution, and absorbance at 540 nm was measured and compared with that in the control group. […]

human lung cancer PC13 = assay: Cancer cell proliferation inhibition (sulforhodamine B staining), PC13; conditions: PC-13, 72 hours culture with test solution, RPMI-160 medium containing 10% fetal bovine serum
Procedure: as §1, §2, §3

[2] = test system: human gastric cancer cell MKN45; assay: Cancer cell proliferation inhibition (sulforhodamine B staining), MKN45; conditions: MKN-45, 72 hours culture with test solution, DMEM medium containing 10% fetal bovine serum
Procedure: as §1, §2, §3

SMILES	IC50 [1]	IC50 (human lung cancer PC13)	IC50 [2]
O=C1NC(=O)c2c1c1c3cccc(O)c3[nH]c1c1[nH]c3c(O)cccc3c21 [BE-13793C, 12,13-dihydro-1,11-dihydroxy-5H-indolo[2,3-a]pyrrolo[3,4-c]-carbazole-5,7(6H)-dione]	> 50 µg/mL	12.5 µg/mL (≈ 35 µM)	> 50 µg/mL
O=C1NC(=O)c2c1c1c3cccc(O)c3[nH]c1c1c2c2cccc(O)c2n1[C@@H]1O[C@H](CO)[C@@H](O)[C@H](O)[C@H]1O [Example 1, 12,13-dihydro-1,11-dihydroxy-13-(β-D-glucopyranosyl)-5H-indolo[2,3-a]pyrrolo[3,4-c]carbazole-5,7(6H)-dione]	1.65 µg/mL (≈ 3.18 µM)	1.7 µg/mL (≈ 3.27 µM)	0.28 µg/mL (≈ 0.539 µM)
